Results published in article PMC9344054, “Studies on Chemical Characterization of Ginkgo Amillaria Oral Solution and Its Drug–Drug Interaction With Piceatannol 3′-O-β-D-Glucopyranoside for Injection” (Frontiers in Pharmacology, 2022).

How the values were obtained:
UGT1A9 = assay: Metabolism of PG based on UGTs, rat liver microsomes with inhibitor niflumic acid; format: in vitro ADME; settings: PG 10 μmol L−1, niflumic acid 10 μmol L−1, p < 0.0001
Method: (§1) The incubation mixtures consisted of 1 mg mL^−1 of rat liver microsomes, 1 mmol L^−1 of UDPGA and 10 μmol L^−1 of PG, tris-HCl (pH = 7.4) and inhibitor (pazopanib (50 μmol L^−1)), niflumic acid (10 μmol L^−1), and fluconazole (50 μmol L^−1). The incubation system was the same as that in “2.4.1.,” whereas polydatin (20 μg mL^−1) was selected as the IS. Detection and analysis conditions based on UPLC-QQQ-MS were the same as those in “2.4.2.” The MRM transitions, cone voltage, and collision voltage of the target compounds and IS are shown in Supplementary Table S1.

UGT1A1 = assay: Metabolism of PG based on UGTs, rat liver microsomes with inhibitor pazopanib; format: in vitro ADME; settings: PG 10 μmol L−1, pazopanib 50 μmol L−1, p > 0.05
Method: as §1

UGT2B7 = assay: Metabolism of PG based on UGTs, rat liver microsomes with inhibitor fluconazole; format: in vitro ADME; settings: PG 10 μmol L−1, fluconazole 50 μmol L−1, p > 0.05
Method: as §1

[1] = Pharmacokinetic study of PGI alone and after repeated GAO in rats; format: in vivo, rat; settings: for clearance / AUC(0-inf) / AUC(0-t) / half-life: male, SD, rat, plasma, iv, 9 mg/kg, n = 8; for clearance: CL
Method: A total of 100 μl of rat plasma sample and 10 μl of polydatin solution (IS) were mixed with 400 μl of ice acetonitrile; the mixture was vortexed for 3 min and centrifuged at 13,200 × g under 4℃ for 20 min. The supernatant was transferred to another centrifuge tube and dry with nitrogen, re-dissolved with 100 μl of 80% methanol-H2O (v/v). The mixture was vortexed for 3 min and centrifuged at 13,200 × g under 4℃ for 20 min. For further LC-MS analysis, 3 μl of the supernatant was injected.
An ultrahigh-performance liquid chromatography-mass spectrometer (Waters, United States) was used for separation and detection. A Waters ACQUITY UPLC HSS T3 column (2.1 × 100 mm, 1.8 μm) was employed at 35℃ with a flow rate of 0.3 ml min^−1. The mobile phase consisted of acetonitrile (A) and water containing 0.1% FA (B). The following linear gradient was used: 0–4 min: 25–95% A; 4–4.5 min: 95–25% A; and 4.5–6 min: 25% A.
MRM was performed using QQQ-MS model Xevo TQ-S (Waters, United States). ESI was set as follows: capillary voltage, 3.0 kV; desolvation temperature, 450℃; and desolvation gas flow, 900 L/h (N2, purity 99.9%). The MRM transitions (precursor → product) of PG and polydatin (IS) were m/z 405.16 → m/z 243.18 and m/z 389.16 → m/z 227.20, respectively. The cone voltage of PG and polydatin were 80 and 84 V, respectively. The collision energy of PG and polydatin was 30 and 20 V, respectively.
Sixteen SD male rats (200 ± 20 g) were purchased from Beijing Vital River Laboratory Animal Technology Co., Ltd. (license number: SCXK (Beijing) 2016-0006). All rats were reared adaptively in a suitable environment for 1 week with freely available food and water. The temperature was maintained at 22℃, and the light was maintained for 12 h in a day.
The rats were randomly divided into two groups, viz., the control group (n = 8) and the combined group (n = 8). For the control group, 9 mg kg^−1 of PGI was injected into the tail vein of rats, whereas the same dosage of PGI was injected after 14 days of repeated GAO ingestion (51 mg kg^−1) for the combined group. The dosage administered to rats is in accordance with clinical dosage. After administration, blood samples were obtained from each rat at 0.03, 0.08, 0.16, 0.33, 0.5, 0.75, 1, 2, 3, 4, and 6 h. The blood sample was centrifuged at 6,600 × g under 4℃ for 10 min, and the supernatant was stored at −80℃ for further analysis.
Pharmacokinetic parameters were calculated under a noncompartmental model using Drug and Statistics 1.0 (DAS 1.0) software.

[2] = Stability of PG in rat blank plasma (method validation); format: in vitro ADME; parameters: unit not given here; settings: n = 6
Method: UPLC-MS/MS method validation was performed according to the FDA bioanalytical method validation guidance. The method was validated in terms of linearity, accuracy, precision, extraction recovery, matrix effect, and stability.
The result of specificity is shown in Supplementary Figure S12. The RTs of PG and polydatin were 1.47 and 1.70 min, respectively. Their chromatographic peaks were in good shape, and there was no interference from other endogenous substances. The regression equation of PG was y = 0.584781x − 0.47063, and the r ^2 and range of the linear were 0.9929 and 0.001–40 μg mL^−1, respectively. LLOQ was 0.5 ng mL^−1. The RSD of the intraday and interday precision was less than 15%, and the accuracy was between 80% and 120% (Supplementary Table S11). […] The stability of PG was less than 12.83% (Supplementary Table S13 ). It was shown that the established method complies with the relevant regulations of pharmacokinetics.

[3] = rats, 2020, cited from earlier work
[4] = after 14 days repeated GAO, p < 0.05
[5] = Combined group: PGI 9 mg kg−1 tail vein after 14 days of repeated GAO 51 mg kg−1, rats
[6] = Control group: PGI 9 mg kg−1 tail vein, rats

Question: Which “metabolism of PG by UGT1A9” value (UGT1A9) does the source give for `OC[C@H]1O[C@@H](Oc2cc(/C=C/c3cc(O)cc(O)c3)ccc2O)[C@H](O)[C@@H](O)[C@@H]1O` [PG, Piceatannol-3′-O-β-D-glucopyranoside] here?
Answer: mainly metabolized by UGT1A9

Question: What about the “contribution of UGT1A1 to metabolism of PG” value (UGT1A1) of the same molecule?
Answer: contributed little or no participation

Question: And the “contribution of UGT2B7 to metabolism of PG” value (UGT2B7)?
Answer: contributed little or no participation

Question: And the “change of AUC 0-t of PG, combined group vs control” value [1, 4]?
Answer: significantly increased

Question: And the “change of AUC 0-∞ of PG, combined group vs control” value [1, 4]?
Answer: significantly increased

Question: And the “change of T1/2 of PG, combined group vs control” value [1, 4]?
Answer: prolonged

Question: What about the “change of clearance of PG, combined group vs control” value [1, 4] of the same molecule?
Answer: significantly decreased

Question: And the clearance [1, 5]?
Answer: 30.4 mL/min/kg

Question: And the clearance [1, 6]?
Answer: 46.2 mL/min/kg

Question: And the AUC(0-inf) [1, 5]?
Answer: 5010 ± 686 ng·h/mL

Question: And the AUC(0-t) [1, 5]?
Answer: 4900 ± 606 ng·h/mL

Question: What about the half-life [1, 5] of the same molecule?
Answer: 1.74 ± 0.802 h

Question: What about the AUC(0-inf) [1, 6] of the same molecule?
Answer: 3320 ± 525 ng·h/mL

Question: What about the AUC(0-t) [1, 6] of the same molecule?
Answer: 3310 ± 517 ng·h/mL

Question: And the half-life [1, 6]?
Answer: 1.01 ± 0.409 h

Question: What about the “Stability, Measured con.” value ([2]; 4h, Con. 0.005 μg/mL) of the same molecule?
Answer: 111.33

Question: And the “Stability, Measured con.” value ([2]; 4h, Con. 5 μg/mL)?
Answer: 117.12

Question: And the “Stability, Measured con.” value ([2]; 4h, Con. 30 μg/mL)?
Answer: 98.21

Question: And the “Stability, Measured con.” value ([2]; 24h, Con. 0.005 μg/mL)?
Answer: 116.33

Question: And the “Stability, Measured con.” value ([2]; 24h, Con. 5 μg/mL)?
Answer: 115.03

Question: What about the “Stability, Measured con.” value ([2]; 24h, Con. 30 μg/mL) of the same molecule?
Answer: 98.37

Question: And the “Stability, Measured con.” value ([2]; 15 days, Con. 0.005 μg/mL)?
Answer: 92.00

Question: And the “Stability, Measured con.” value ([2]; 15 days, Con. 5 μg/mL)?
Answer: 100.78

Question: And the “Stability, Measured con.” value ([2]; 15 days, Con. 30 μg/mL)?
Answer: 96.48

Question: And the “Stability, Measured con.” value ([2]; Freeze-thaws stability (3 times), Con. 0.005 μg/mL)?
Answer: 107.66

Question: And the “Stability, Measured con.” value ([2]; Freeze-thaws stability (3 times), Con. 5 μg/mL)?
Answer: 104.58

Question: What about the “Stability, Measured con.” value ([2]; Freeze-thaws stability (3 times), Con. 30 μg/mL) of the same molecule?
Answer: 105.11

Question: And the “excretion of the prototype of PG” value ([3]; 40.0 mg kg−1 PG, tail vein and intragastric administration, ref Xu)?
Answer: mainly excreted through urine

Question: What about the distribution ([3]; ref Chai, 2019, Xu) of the same molecule?
Answer: widely distributed

Question: What about the elimination rate ([3]; ref Chai, 2019, Xu) of the same molecule?
Answer: fast elimination rate

Question: What about the excretion ([3]; ref Chai, 2019, Xu) of the same molecule?
Answer: mainly excreted by urine

Question: And the kinetics ([3]; ref Chai, 2019, Xu)?
Answer: linear kinetics
